From PMC12754760, “Size-Controlled Mesoporous Silica Nanoparticles via Template Nanoarchitectonics from a Deferoxamine Derivative for Enhanced Blood–Brain Barrier Permeability and Neuroprotective Chelation Therapy” (ACS Applied Materials & Interfaces, 2025)
Structures can show the parent of a compound that is named as a salt.

What was measured:
[1] = Caco-2 monolayer drug transport (in vitro BBB model); format: in vitro ADME; details: human
Procedure: The preparation of the Caco-2 cell monolayer as an in vitro BBB model was performed as follows: Caco-2 cells were seeded at a density of 10.000 cells per well on a Millicell 96-well cell culture plate. The culture medium was replaced every 48 h. The formation of the monolayer was monitored by measuring the transepithelial electrical resistance (TEER) using an epithelial voltohmmeter (Millicell-ERS). After 21 days of culture, the Caco-2 cell monolayers were used for permeability experiments. All TEER values measured immediately before the experiments were above 300 Ω·cm^2, confirming the integrity of the monolayer.
Drug transport experiments were carried out following the previously published protocol. Briefly, after 21 days of culture, the medium was removed, and the cells were washed twice with Hank’s Balanced Salt Solution (HBSS) to eliminate any residual culture medium. Subsequently, the wells were refilled with HBSS and incubated at 37 °C for 30 min. After incubation, the HBSS was removed, and solutions containing the compound were added either to the filter well (apical side) or to the receiver plate (basolateral side), while HBSS without the compound was added to the corresponding opposite side. The final concentration of the compounds was 10^–4 M. The plates were then incubated at 37 °C for 2 h. At the end of the incubation period, the samples from both compartments were collected and analyzed by UV–vis spectroscopy. The apparent permeability coefficient (Papp), expressed in nm·s^–1, was calculated using the following equation: 1 Papp=[VA/(area×time)]×([drug]acceptor/[drug]receptor) where VA is the volume (mL) in the acceptor well, area is the surface area of the membrane (0.11 cm^2 of the well), time is the total transport time (7200 s), and [drug] is drug concentration measured by UV–vis spectroscopy.

[2] = Cell viability assay SH-SY5Y (MTT); format: cell-based; details: human, SH-SY5Y cells
Procedure: Briefly, 10.000 BV-2 cells/well in 100 μL of culture medium were seeded into 96-well plates (transparent plate, clear bottom; Costar, Corning Inc.) and incubated overnight at 37 °C in 5% CO2. Stock solutions of the drug were preparate in DMSO, keeping it concentration <1% in the experiments. […] Stock solutions were prepared just before their use. Control wells with DMSO were used to evaluate the possible cytotoxicity of the solvent. After 72 h incubation, CCK-8 (10 μL) was added to each well, and after 3–4 h of incubation at 37 °C, the absorbance values at λ = 450 nm were determined on the Tecan Infinite 200 microplate reader. The cytotoxicity assay for SH-SY5Y was conducted by seeding cells at a density of 40.000 cells/well for 24 h in 96-well plate and incubated overnight. […] The plate was incubated for 24 h. After this time, MTT (10 μL) was added to each well, and after 3–4 h of incubation at 37 °C, the absorbance values at λ = 540 nm were determined on the Tecan Infinite 200 microplate reader.
Data were plotted as % cell viability, normalized vs untreated cells by using GraphPad Prism software version 7.05. Values are expressed as the mean ± SEM of at least three independent experiments. […]

[3] = in vivo; cited from earlier work

CC(=O)N(O)CCCCCNC(=O)CCC(=O)N(O)CCCCCNC(=O)CCC(=O)N(O)CCCCCN [DFO, Deferoxamine mesylate]
Papp A→B at 2 h ([1]; apical-to-basolateral, 10^–4 M, 2 h, 37 °C): 76.1 ×10⁻⁶ cm/s | Papp B→A at 2 h ([1]; basolateral-to-apical, 10^–4 M, 2 h, 37 °C): 162 ×10⁻⁶ cm/s | efflux ratio at 2 h ([1]; read-out: BA/AB permeability ratio): 2.13 | viability at 24 h, 100 µM [2]: ~100% | Plasma half-life [3]: 20 to 30 min
